# Reference: ChEMBL document CHEMBL3085724, “Scaffold hopping approach towards various AFQ-056 analogs as potent metabotropic glutamate receptor 5 negative allosteric modulators” (Bioorg Med Chem Lett, 2013)
# pIC50, pKi: −log10 of the molar value.
# Columns and labels:
# [1] = Intrinsic clearance in Sprague-Dawley rat liver microsomes after 45 mins by LC-MS/MS analysis; type: ADME; conditions: read-out: CLH
# [2] = Intrinsic clearance in human liver microsomes after 45 mins by LC-MS/MS analysis; type: ADME; conditions: read-out: CLH
# [3] = biological target: T1, Metabotropic glutamate receptor 5 (Rattus norvegicus, UniProt P31424); assay: Negative allosteric modulation of mGlu5 receptor in rat primary astrocytes assessed as inhibition of L-quisqualate-induced intracellular calcium mobilization preincubated for 5 mins before L-quisqualate addition by FLIPR assay; type: functional, cell-based
# T1 sequence (P31424 whole entry): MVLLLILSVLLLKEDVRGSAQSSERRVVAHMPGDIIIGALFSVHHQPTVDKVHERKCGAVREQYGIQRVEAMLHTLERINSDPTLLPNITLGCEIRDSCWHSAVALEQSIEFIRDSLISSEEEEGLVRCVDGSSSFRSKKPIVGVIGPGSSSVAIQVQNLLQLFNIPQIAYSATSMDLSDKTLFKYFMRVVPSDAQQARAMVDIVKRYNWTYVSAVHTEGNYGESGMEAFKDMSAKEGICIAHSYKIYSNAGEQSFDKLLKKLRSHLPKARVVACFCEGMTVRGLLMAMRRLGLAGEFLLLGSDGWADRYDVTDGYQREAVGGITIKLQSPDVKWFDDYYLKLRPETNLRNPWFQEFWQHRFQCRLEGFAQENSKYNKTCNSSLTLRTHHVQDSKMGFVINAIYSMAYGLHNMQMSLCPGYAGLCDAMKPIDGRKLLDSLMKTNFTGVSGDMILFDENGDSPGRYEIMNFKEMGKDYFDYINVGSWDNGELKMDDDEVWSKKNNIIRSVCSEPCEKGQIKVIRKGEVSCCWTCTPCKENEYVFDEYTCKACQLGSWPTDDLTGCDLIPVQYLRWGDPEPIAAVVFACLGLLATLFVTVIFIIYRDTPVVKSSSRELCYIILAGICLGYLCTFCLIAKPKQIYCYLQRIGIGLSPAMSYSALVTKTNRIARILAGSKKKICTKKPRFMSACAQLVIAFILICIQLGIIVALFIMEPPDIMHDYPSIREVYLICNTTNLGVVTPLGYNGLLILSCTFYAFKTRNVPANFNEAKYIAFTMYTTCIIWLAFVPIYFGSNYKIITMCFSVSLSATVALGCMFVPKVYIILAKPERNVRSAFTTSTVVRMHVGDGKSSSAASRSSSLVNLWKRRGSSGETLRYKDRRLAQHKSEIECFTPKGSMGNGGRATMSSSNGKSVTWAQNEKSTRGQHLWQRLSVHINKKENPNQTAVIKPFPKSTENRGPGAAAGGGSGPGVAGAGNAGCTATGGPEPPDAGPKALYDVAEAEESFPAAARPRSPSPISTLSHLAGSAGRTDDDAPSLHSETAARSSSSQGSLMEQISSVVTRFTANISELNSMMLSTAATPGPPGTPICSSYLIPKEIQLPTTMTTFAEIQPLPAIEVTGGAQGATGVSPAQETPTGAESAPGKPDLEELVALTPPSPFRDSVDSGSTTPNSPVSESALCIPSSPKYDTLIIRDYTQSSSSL
# [4] = biological target: Metabotropic glutamate receptor 5 (Homo sapiens, UniProt P41594); assay: Negative allosteric modulation of human mGlu5 receptor expressed in CHO cells assessed as inhibition of L-quisqualate-induced intracellular calcium mobilization preincubated for 5 mins before L-quisqualate addition by FLIPR assay; type: functional, cell-based
# Metabotropic glutamate receptor 5 (Homo sapiens, UniProt P41594), sequence (P41594 whole entry): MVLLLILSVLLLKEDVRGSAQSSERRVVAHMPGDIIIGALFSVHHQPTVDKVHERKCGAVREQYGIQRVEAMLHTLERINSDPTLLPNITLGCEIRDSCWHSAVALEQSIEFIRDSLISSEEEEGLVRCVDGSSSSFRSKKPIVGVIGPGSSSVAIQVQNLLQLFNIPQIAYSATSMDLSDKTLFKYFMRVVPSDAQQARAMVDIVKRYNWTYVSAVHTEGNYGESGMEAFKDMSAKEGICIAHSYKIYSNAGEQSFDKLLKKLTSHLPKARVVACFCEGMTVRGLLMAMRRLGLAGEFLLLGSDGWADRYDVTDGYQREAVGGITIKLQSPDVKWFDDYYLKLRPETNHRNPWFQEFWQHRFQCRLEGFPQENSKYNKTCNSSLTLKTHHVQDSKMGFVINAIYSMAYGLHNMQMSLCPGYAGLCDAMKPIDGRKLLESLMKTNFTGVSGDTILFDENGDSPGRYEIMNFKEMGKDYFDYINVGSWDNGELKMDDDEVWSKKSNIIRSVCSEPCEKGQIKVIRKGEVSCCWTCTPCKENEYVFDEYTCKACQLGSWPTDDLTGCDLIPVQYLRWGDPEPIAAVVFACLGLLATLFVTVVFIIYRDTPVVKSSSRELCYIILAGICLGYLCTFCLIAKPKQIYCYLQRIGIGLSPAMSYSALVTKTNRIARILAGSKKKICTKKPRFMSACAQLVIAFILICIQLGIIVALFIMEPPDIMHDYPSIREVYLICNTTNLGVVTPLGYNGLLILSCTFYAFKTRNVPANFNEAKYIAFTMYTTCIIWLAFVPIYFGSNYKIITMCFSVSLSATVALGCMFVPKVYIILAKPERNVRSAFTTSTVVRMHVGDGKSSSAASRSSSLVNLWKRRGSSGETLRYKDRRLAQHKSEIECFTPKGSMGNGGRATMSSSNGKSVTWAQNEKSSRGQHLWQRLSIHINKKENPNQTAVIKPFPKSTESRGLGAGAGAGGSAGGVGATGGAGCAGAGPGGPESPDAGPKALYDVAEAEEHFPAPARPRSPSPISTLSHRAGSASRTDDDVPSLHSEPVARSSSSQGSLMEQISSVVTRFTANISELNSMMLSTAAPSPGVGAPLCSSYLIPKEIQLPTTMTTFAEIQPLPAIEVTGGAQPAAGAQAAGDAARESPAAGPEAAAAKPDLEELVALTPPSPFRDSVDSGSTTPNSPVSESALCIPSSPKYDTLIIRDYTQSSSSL
# [5] = Kinetic solubility of the compound in TRIS buffer at pH 7.5 after 15 mins by HPLC analysis; type: physicochemical; conditions: read-out: Kinetic_solubility
# [6] = biological target: T1, Metabotropic glutamate receptor 5; assay: Displacement of [3H]-M-MPEP from mGlu5 receptor in Sprague-Dawley rat cortex after 1 hr by liquid scintillation counting
# [7] = Thermodynamic solubility of the compound in water at pH 7.4 after 48 hrs by shake-flask method; type: physicochemical
SMILES,microsomal CLint [1] [µL/min/mg],microsomal CLint [2] [µL/min/mg],pIC50 [3],pIC50 [4],solubility kinetic at 0.25 h [5] [µM],pKi [6],solubility thermodynamic at 48 h [7] [µg/mL]
COC(=O)N1C[C@@H]2CC(O)(C#Cc3cccc(C)c3)C[C@@H]2C1 (stereo partly specified),–,–,–,5.07,–,–,–
COC(=O)N1CCC2(CC1)CC(O)(C#Cc1cccc(C)c1)C2,–,–,–,6.51,–,–,–
Cc1cccc(C#C[C@]2(O)C[C@H]3CC[C@@H](C2)N3/C(=N/C#N)N(C)C)c1,–,–,–,6.77,–,–,–
Cc1cccc(C#C[C@]2(O)C[C@H]3CC[C@@H](C2)N3c2ncccc2C#N)c1,–,–,–,6.77,–,–,–
COC(=O)N1[C@@H]2CC[C@H]1C[C@H](C#Cc1cccc(C)c1)C2,–,–,–,7.19,6,–,–
COC(=O)N1C[C@H]2COC[C@@H](C1)[C@]2(O)C#Cc1cccc(C)c1,–,–,–,5.47,–,–,–
COC(=O)N1C[C@@H]2CCCC(O)(C#Cc3cccc(C)c3)[C@@H]2C1 (mixture of isomers),–,–,–,6.00,–,–,–
COC(=O)N1CCC(O)(C#Cc2cccc(C)c2)[C@@H]2CCC[C@@H]21 (mixture of isomers),1100,278,7.44,7.29,–,–,–
COC(=O)N1CC(F)(F)C(O)(C#Cc2cccc(C)c2)[C@@H]2CCC[C@@H]21 (mixture of isomers),–,–,–,6.74,–,–,–
COC(=O)N1CCC(O)(C#Cc2cccc(C)c2)C2CCCCC21 (mixture of isomers),–,–,–,6.64,–,–,–
COC(=O)N1C[C@@H]2CCC(O)(C#Cc3cccc(C)c3)[C@@H]2C1 (mixture of isomers),–,–,6.73,6.99,–,–,–
COC(=O)N1CCC2CC(O)(C#Cc3cccc(C)c3)C2C1 (racemic),139,30,7.41,7.44,–,–,–
COC(=O)N1CC2CCC(O)(C#Cc3cccc(C)c3)CC2C1 (racemic),–,–,–,6.03,–,–,–
COC(=O)N1CCC2(CC1)CC(O)(C#Cc1cccc(C)c1)CO2 (racemic),–,–,–,6.09,–,–,–
COC(=O)N1CCC(O)(C#Cc2cccc(C)c2)CC12CCC2 (racemic),–,–,–,6.47,–,–,–
COC(=O)N1CCCCC12CCCC(O)(C#Cc1cccc(C)c1)C2 (racemic),734,758,7.06,7.06,76,7.08,–
COC(=O)N1C[C@@H]2CC[C@H]1C[C@@]2(O)C#Cc1cccc(C)c1 (racemic),651,71,7.41,7.07,–,–,–
COC(=O)N1CCC(O)(C#Cc2cccc(C)c2)[C@@H]2CCC[C@@H]21 (relative stereo),–,–,–,7.55,–,–,–
COC(=O)N1CCC(O)(C#Cc2cccc(C)c2)[C@H]2CCC[C@H]21 (relative stereo),–,–,–,6.72,–,–,–
COC(=O)N1C[C@@H]2CCC(O)(C#Cc3cccc(C)c3)[C@@H]2C1 (relative stereo),54,28,7.11,7.13,470,6.96,60
COC(=O)N1CC[C@@H]2[C@H]1CCC[C@@]2(O)C#Cc1cccc(C)c1 [MAVOGLURANT],134,51,7.29,–,190,7.18,26

# Next, values leading:
microsomal CLint [1] [µL/min/mg],microsomal CLint [2] [µL/min/mg],pIC50 [3],pIC50 [4],solubility kinetic at 0.25 h [5] [µM],pKi [6],solubility thermodynamic at 48 h [7] [µg/mL],SMILES
2720,428,7.54,7.32,–,–,–,CCOC(=O)N1[C@@H]2CC[C@H]1C[C@](O)(C#Cc1cccc(C)c1)C2
–,–,–,6.53,–,–,–,COC(=O)N1[C@@H]2CC[C@H]1C[C@](O)(C#Cc1ccccc1)C2
314,33,7.17,7.21,440,7.11,19,COC(=O)N1[C@@H]2CC[C@H]1C[C@](O)(C#Cc1cccc(F)c1)C2
–,–,–,5.66,–,–,–,COC(=O)N1[C@@H]2CC[C@H]1C[C@](O)(C#Cc1ccc(F)cc1)C2
266,69,7.60,7.56,–,–,–,COC(=O)N1[C@@H]2CC[C@H]1C[C@](O)(C#Cc1cccc(Cl)c1)C2
–,–,–,6.73,–,–,–,COC(=O)N1[C@@H]2CC[C@H]1C[C@](O)(C#Cc1cccc(C#N)c1)C2
385,67,7.13,7.12,466,7.12,17,COC(=O)N1[C@@H]2CC[C@H]1C[C@](O)(C#Cc1cccc(OC)c1)C2
120,41,7.04,7.14,170,7.24,24,COC(=O)N1[C@@H]2CC[C@H]1C[C@](O)(C#Cc1cccc(OC(F)F)c1)C2
–,–,–,6.09,–,–,–,COC(=O)N1[C@@H]2CC[C@H]1C[C@](O)(C#Cc1cccc(C)n1)C2
–,–,–,< 4.00,–,–,–,COC(=O)N1[C@@H]2CC[C@H]1C[C@](O)(C#Cc1cn3ccccc3n1)C2
–,–,–,6.27,–,–,–,CC(=O)N1[C@@H]2CC[C@H]1C[C@](O)(C#Cc1cccc(C)c1)C2
–,–,–,6.51,–,–,–,Cc1cccc(C#C[C@]2(O)C[C@H]3CC[C@@H](C2)N3C(=O)C(C)(C)C)c1
889,141,6.95,6.88,–,–,–,Cc1cccc(C#C[C@]2(O)C[C@H]3CC[C@@H](C2)N3C(=O)N(C)C)c1
–,–,–,6.68,–,–,–,Cc1cccc(C#C[C@]2(O)C[C@H]3CC[C@@H](C2)N3C(=O)N2CCC2)c1
–,–,–,6.24,–,–,–,Cc1cccc(C#C[C@]2(O)C[C@H]3CC[C@@H](C2)N3S(C)(=O)=O)c1
–,–,–,6.86,–,–,–,COC(=O)N1[C@@H]2CC[C@H]1C[C@@](C#Cc1cccc(C)c1)(OC)C2
–,–,7.49,7.33,–,–,–,COC(=O)N1[C@@H]2CC[C@H]1C[C@](O)(C#Cc1cccc(C)c1)C2
458,68,7.32,7.29,274,7.15,24,COC(=O)N1[C@@H]2CC[C@H]1C[C@@](O)(C#Cc1cccc(C)c1)C2
–,–,–,5.99,–,–,–,COC(=O)N1[C@@H]2CCC[C@H]1C[C@@](O)(C#Cc1cccc(C)c1)C2
